Here are results for 1 compound from US6211373A, “Phenyl urea antagonists of the IL-8 receptor” (SmithKline Beecham Corporation, priority 1998, dated 2001).

The test deals with T1, recombinant human IL-8 type b receptor (IL-8 Rb, Type II, permissive receptor) (Homo sapiens, UniProt P25025).
T1 construct: membranes
T1 sequence (P25025 1-360): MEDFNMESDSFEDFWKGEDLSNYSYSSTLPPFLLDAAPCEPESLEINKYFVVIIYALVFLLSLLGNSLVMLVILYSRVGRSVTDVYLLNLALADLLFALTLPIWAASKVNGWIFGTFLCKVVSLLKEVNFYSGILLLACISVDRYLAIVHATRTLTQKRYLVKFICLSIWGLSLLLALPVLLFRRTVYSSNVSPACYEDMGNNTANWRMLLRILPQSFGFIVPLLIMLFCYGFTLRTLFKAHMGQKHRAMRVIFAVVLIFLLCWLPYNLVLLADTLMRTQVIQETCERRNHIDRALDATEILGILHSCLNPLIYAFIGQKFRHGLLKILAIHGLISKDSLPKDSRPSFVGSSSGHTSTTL
As to the kind of experiment: Receptor binding assay, [125I] IL-8, permissive model. The text has this: [^125 I] IL-8 (human recombinant) was obtained from Amersham Corp., Arlington Heights, Ill., with specific activity 2000 Ci/mmol. Gro-a was obtained from NEN-New England Nuclear. All other chemicals were of analytical grade. High levels of recombinant human IL-8 type a and b receptors were individually expressed in Chinese hamster ovary cells as described previously (Holmes, et al., Science, 1991, 253, 1278). The Chinese hamster ovary membranes were homogenized according to a previously described protocol (Haour, et al., J Biol Chem., 249 pp 2195-2205 (1974)). Except that the homogenization buffer was changed to 10 mM Tris-HCL, 1 mM MgSO4, 0.5 mM EDTA (ethylene-diaminetetra-acetic acid), 1 mMPMSF (a-toluenesulphonyl fluoride), 0.5 mg/L Leupeptin, pH 7.5. Membrane protein concentration was determined using Pierce Co. micro-assay kit using bovine serum albumin as a standard. All assays were performed in a 96-well micro plate format. Each reaction mixture contained ^125 I IL-8 (0.25 nM) or ^125 I Gro-a and 0.5 μg/mL of IL-8Ra or 1.0 μg/mL of IL-8Rb membranes in 20 mM Bis-Trispropane and 0.4 mM Tris HCl buffers, pH 8.0, containing 1.2 mM MgSO4, 0.1 mM EDTA, 25 mM NaCl and 0.03% CHAPS. […] The filter was then dried and counted on the Betaplate liquid scintillation counter. […]

As to `Cc1cc(Cl)ccc1NC(=O)Nc1ccccc1C(=O)O` [1-(2-Carboxyphenyl)-3-(4-chloro-2-methylphenyl)urea], the “level at which found to be active (IL-8 receptor inhibition)” value is reported as “about 75 μg/mL”.
